The text below walks through data of patent US8039493B2, “Biaryl sulfonamide derivatives” (Hoffmann-La Roche Inc., priority 2008, dated 2011).

In test [1] the target is T1, human LXR beta (Homo sapiens, UniProt P55055).
T1 construct: human LXR beta (aa 155 to 460); made in house; host or cells: E. coli BL21 (pLysS)
T1 sequence (P55055 155-460): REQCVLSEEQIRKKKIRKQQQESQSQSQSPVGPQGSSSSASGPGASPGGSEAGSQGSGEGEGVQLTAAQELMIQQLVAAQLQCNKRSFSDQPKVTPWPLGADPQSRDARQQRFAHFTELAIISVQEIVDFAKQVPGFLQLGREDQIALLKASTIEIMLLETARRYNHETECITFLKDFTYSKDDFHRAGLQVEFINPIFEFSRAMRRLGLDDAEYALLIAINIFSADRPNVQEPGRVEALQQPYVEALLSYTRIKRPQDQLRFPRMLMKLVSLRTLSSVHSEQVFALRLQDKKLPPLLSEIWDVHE
Description: Radioligand binding assay (scintillation proximity), LXR beta-LBD. Particulars: LXR beta-LBD on SPA beads, read-out: LXRbeta Binding IC50. How it is done: (§1) The following tests were carried out in order to determine the activity of the compounds of the present invention. […] Mammalian expression vectors were constructed to express full-length human LXR alpha and LXR beta. […] To accomplish this, the portions of the sequences encoding the LBDs were amplified from the full-length clones by PCR and then subcloned into the plasmid vectors.
(§2) Induction, expression, and purification of LBD proteins were performed in E. coli strain BL21 (pLysS) cells by standard methods (Ref: Current Protocols in Molecular Biology, Wiley Press, edited by Ausubel et al).
(§3) Radioligand Binding Assay
(§4) LXR alpha and LXR beta receptor binding were assayed in buffer consisting of 50 mM HEPES, pH 7.4, 10 mM NaCl, 5 mM MgCl2. For each 96-well reaction, 500 ng of LXRα-LBD or 700 ng of LXR beta-LBD proteins were bound to 80 μg or 40 μg SPA beads respectively, in a final volume of 50 μl by shaking. The resulting slurry was incubated for 1 h at RT and centrifuged for 2 min at 1300×g. The supernatant containing unbound protein was removed, and the semi-dry pellet containing the receptor-coated beads was re-suspended in 50 μl of buffer. Radioligand (eg. 100,000 dpm of (N-(2,2,2-trifluoroethyl)-N-[4-(2,2,2-trifluoro-1-hydroxy-1-trifluoromethylethyl)-phenyl]-benzenesulfonamide)) was added, and the reaction incubated at RT for 1 h in the presence of test compounds, and then scintillation proximity counting was performed. All binding assays were performed in 96-well plates and the amount of bound ligand was measured on a Packard TopCount using OptiPlates (Packard). Dose response curves were measured within a range of concentration from 10^−10 M to 10^−4 M.
(In general: SPA uses beads or plates that emit light when radiolabelled molecules are held near them.)

In test [2] the target is T2, human LXR alpha (Homo sapiens, UniProt Q13133).
T2 construct: human LXR alpha (aa 164 to 447); made in house; host or cells: E. coli BL21 (pLysS)
T2 sequence (Q13133 164-447): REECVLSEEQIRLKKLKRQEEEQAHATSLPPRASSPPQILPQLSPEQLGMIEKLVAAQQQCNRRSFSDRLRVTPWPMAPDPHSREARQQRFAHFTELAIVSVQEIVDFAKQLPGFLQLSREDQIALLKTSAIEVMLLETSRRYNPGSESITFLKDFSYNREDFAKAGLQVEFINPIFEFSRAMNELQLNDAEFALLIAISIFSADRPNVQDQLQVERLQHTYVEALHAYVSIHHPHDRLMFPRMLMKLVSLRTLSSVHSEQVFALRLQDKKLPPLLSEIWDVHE
Description: Radioligand binding assay (scintillation proximity), LXRα-LBD. The note with it: LXRα-LBD on SPA beads, read-out: LXRalpha Binding IC50. The protocol: as §1, §2, §3, §4

Broadly, the IC50 is the concentration that inhibits the measured activity by half.

For `CC(C)CN(Cc1cc(-c2cccc(S(C)(=O)=O)c2)cs1)S(=O)(=O)c1ccccc1Cl` [Example 14, 2-Chloro-N-isobutyl-N-[4-(3-methanesulfonyl-phenyl)-thiophen-2-ylmethyl]-benzenesulfonamide], the results for the IC50 in test [1] and in test [2] were 0.0022 µM and 0.068 µM, respectively.

With `CC(C)CN(Cc1ccc(-c2cccc(S(C)(=O)=O)c2)s1)S(=O)(=O)C(F)(F)F` [Example 20, Trifluoro-N-isobutyl-N-[5-(3-methanesulfonyl-phenyl)-thiophen-2-ylmethyl]-methanesulfonamide], the half-maximal inhibitory concentration (IC50) in test [1] was 0.27 µM; in test [2], 3.75 µM.

As to `CC(C)CN(Cc1ccc(-c2cccc(S(C)(=O)=O)c2)s1)S(=O)(=O)c1cccc(Cl)c1` [Example 8, 3-Chloro-N-isobutyl-N-[5-(3-methanesulfonyl-phenyl)-thiophen-2-ylmethyl]-benzenesulfonamide], the IC50 in test [1] stood at 0.56 µM; in test [2] it was 0.925 µM.

`CC(C)CN(Cc1ccc(-c2cccc(S(C)(=O)=O)c2)s1)S(=O)(=O)c1ccccc1C#N` [Example 26, 2-Cyano-N-isobutyl-N-[5-(3-methanesulfonyl-phenyl)-thiophen-2-ylmethyl]-benzenesulfonamide]: the half-inhibitory concentration (IC50) in test [1] came out at 0.098 µM; in test [2] it was 15.9 µM.

In the case of `CC(C)CN(Cc1cc(-c2cccc(S(=O)(=O)NC(C)(C)C)c2)cs1)S(=O)(=O)c1ccccc1Cl` [Example 56, 2-Chloro-N-isobutyl-N-[4-(3-tert-butylaminosulfonyl-phenyl)-thiophen-2-ylmethyl]-benzenesulfonamide], the IC50 in test [1] amounted to 39.1 µM; in test [2] it was 17.7 µM.

On to `COc1ccc(Cl)cc1S(=O)(=O)N(Cc1ccc(-c2cccc(S(C)(=O)=O)c2)s1)CC(C)C` [Example 23, 5-Chloro-N-isobutyl-N-[5-(3-methanesulfonyl-phenyl)-thiophen-2-ylmethyl]-2-methoxy-benzenesulfonamide], for which the IC50 worked out at 0.019 µM in test [1] and 1.53 µM in test [2].

In the case of `CC(C)N(Cc1ccc(-c2cccc(S(C)(=O)=O)c2)s1)S(=O)(=O)c1ccccc1C(F)(F)F` [Example 30, N-Isopropyl-N-[5-(3-methanesulfonyl-phenyl)-thiophen-2-ylmethyl]-2-trifluoromethyl-benzenesulfonamide], the IC50 in test [1] worked out at 0.47 µM; in test [2], 7.86 µM.

As for `CCN(CC)C(=O)CN(Cc1ccc(-c2cccc(S(C)(=O)=O)c2)s1)S(=O)(=O)c1ccccc1C(F)(F)F` [Example 38, N,N-Diethyl-2-[[5-(3-methanesulfonyl-phenyl)-thiophen-2-ylmethyl]-(2-trifluoromethyl-benzenesulfonyl)-amino]-acetamide], the IC50 in test [1] came to 0.16 µM; in test [2] it was 2.41 µM.

For `CCN(Cc1ccc(-c2cccc(S(C)(=O)=O)c2)s1)S(=O)(=O)c1ccccc1C(F)(F)F` [Example 28, N-Ethyl-N-[5-(3-methanesulfonyl-phenyl)-thiophen-2-ylmethyl]-2-trifluoromethyl-benzenesulfonamide], the IC50 came to 0.44 µM in test [1] and 19.9 µM in test [2].
